The text below walks through data of ChEMBL document CHEMBL3508693 (2016).

Series [1] is described as follows: Oral clearance of SPP100 following single oral dose of SPP100 150 mg capsule studied in healthy human. Type of series: ADME, organism-based. Particulars: plasma.
A short description of series [2]: % of radioactivity recovered as aliskiren in faeces following intravenous administration of [14C] aliskiren hemifumarate at 10 mg.Kg-1 level in rat. As to conditions: in vivo. Type of series: ADME, organism-based, Albino HAN:WIST, Feces.
Series [3] is described as follows: % SPP100 recovered of receiver rat following duodenal infusion of radioactivity through bile from donor rat treated with single intravenous administration of 10 mg.Kg-1 [14C] aliskiren hemifumarate. Type of series: ADME, organism-based, HAN:WIST(SPF). As to conditions: in vivo.
In series [4] the target is CYP2C9 (Homo sapiens, UniProt P11712). Kind of series: Inhibitory activity of 200 uM SPP100 on 201 Pmoles of cDNA-derived CYP2C9 enzyme in microsome prepared from human lymphoblastoid cell line. Type of series: ADME, microsomes. More on the design: conc 200 uM, interact cpd conc 6 uM. As to conditions: probe diclofenac.
For series [5], the target named is CYP2E1 (Homo sapiens, UniProt P05181). Kind of series: Inhibition of CYP2E1 in human liver microsomes from 10 healthy donors at 200 uM aliskiren (SPP100). Particulars: probe chlorzoxazone (6-hydroxylation). More on the design: conc 200 uM. Type of series: ADME, Microsome. On the technique in general: Liver microsomes are vesicles of endoplasmic reticulum, rich in cytochrome P450 enzymes.

A short description of series [6]: Total excretion (0-96h) of radioactivity in urine, faeces and cage wash following single intravenous dose of 10 mg.Kg-1 [14C] aliskiren hemifumarate in mouse. Type of series: ADME, organism-based, Urine/Feces. Particulars: rat, in vivo.
Series [7] is described as follows: Excretion of radioactivity (24-48h) in faeces following single intravenous dose of 10 mg.Kg-1 [14C] aliskiren hemifumarate in rat. Type of series: ADME, organism-based, Albino HAN:WIST, Feces. Particulars: in vivo.
A short description of series [8]: Excretion of radioactivity (0-72h) in faeces following single intravenous dose of 10 mg.Kg-1 [14C] aliskiren hemifumarate in mouse. Type of series: ADME, organism-based, TgRasH2, Feces. Particulars: in vivo.
Series [9] is described as follows: Excretion of radioactivity (0-96h) in faeces following single oral dose of 100 mg.Kg-1 [14C] aliskiren hemifumarate in rat. Type of series: ADME, organism-based, Albino HAN:WIST, Feces. Particulars: in vivo.
The nature of series [10]: AUC (0-96 or 0-168h) of total radioactivity following single intravenous administration of [14C] aliskiren hemifumarate at 1 mg.Kg-1 level in marmoset. Type of series: ADME, organism-based, Callithrix jacchus, Plasma. Particulars: in vivo.
Series [11] in a line: Excretion (24h) of radioactivity in urine following oral administration of [14C] aliskiren hemifumarate at 100 mg.Kg-1 level in rat. Type of series: ADME, organism-based, Lister-Hooded. Particulars: in vivo.
Series [12] can be described thus: Excretion (0-24h) of radioactivity in urine following oral administration of [14C] aliskiren hemifumarate at 3 mg.Kg-1 level in marmoset. Type of series: ADME, organism-based, Callithrix jacchus. As to conditions: in vivo.
Series [13] can be described thus: AUC (0-96h) of total radioactivity following oral administration of [14C] aliskiren hemifumarate at 100 mg.Kg-1 level in rat. Type of series: ADME, organism-based, Albino HAN:WIST, Plasma. As to conditions: in vivo.
Series [14] is described as follows: Excretion of radioactivity (0-96h) in urine following single intravenous dose of 10 mg.Kg-1 [14C] aliskiren hemifumarate in rat. Type of series: ADME, organism-based, Albino HAN:WIST. As to conditions: in vivo.
A short description of series [15]: Excretion of radioactivity (24-48h) in urine following single oral dose of 100 mg.Kg-1 [14C] aliskiren hemifumarate in rat. Type of series: ADME, organism-based, Albino HAN:WIST. As to conditions: in vivo.
Series [16] in a line: Concentration of radioactivity in the liver following repeated oral administration of [14C] aliskiren hemifumarate at 100 mg.Kg-1 level studied at 24h after 7th dose in rat. Type of series: ADME, organism-based, Albino HAN:WIST. As to conditions: in vivo.
Series [17] is described as follows: Mean excretion of radioactivity (0-24h) in urine and faeces following single intravenous dose of 10 mg.Kg-1 [14C] aliskiren hemifumarate in rat. As to conditions: in vivo. Type of series: ADME, organism-based, Albino HAN:WIST, Urine/Feces.
The nature of series [18]: Tmax of radioactivity following repeated oral administration of [14C] aliskiren hemifumarate at 100 mg.Kg-1 level studied after 2h of dosing on day 1 in rat. As to conditions: in vivo. Type of series: ADME, organism-based, Albino HAN:WIST.
The nature of series [19]: Faecal elimination of aliskiren following single intravenous dose of [14C] aliskiren hemifumarate at 10 mg.Kg-1 level in mouse. Type of series: ADME, organism-based, TgRasH2, Feces. As to conditions: in vivo.
Series [20] is described as follows: Concentration of radioactivity in the liver following repeated oral administration of [14C] aliskiren hemifumarate at 100 mg.Kg-1 level studied at 24h after 10th dose in rat. Particulars: in vivo. Type of series: ADME, organism-based, Albino HAN:WIST.
Series [21] is described as follows: AUC(0-24h) of aliskiren hemifumarate following 2 week oral dosing of aliskiren hemifumarate at 10 mg.Kg-1 level studied on day 1 in female Callithrix jacchus. Type of series: ADME, organism-based. Particulars: marmoset, plasma.
Series [22] can be described thus: Tmax of aliskiren hemifumarate following 8 day once-daily dosing of SPP100B oral solution at 640 mg level studied on day 8 in men. Type of series: ADME, organism-based. As to conditions: male, human, plasma.
Series [23] can be described thus: Tmax of aliskiren hemifumarate following single dosing of SPP100B oral solution at 40 mg level studied on day 1 in men. Type of series: ADME, organism-based. Particulars: male, human, plasma.
Series [24] is described as follows: Cmin of aliskiren hemifumarate following repeated oral administration of [14C] aliskiren hemifumarate at 100 mg.Kg-1 level studied after first dosing in rat. Type of series: ADME, organism-based, Albino HAN:WIST. Particulars: in vivo.
The nature of series [25]: Effect of 2 week oral dosing of aliskiren hemifumarate at 100 mg.Kg-1 level on plasma creatinine level in male Callithrix jacchus. Type of series: toxicity, organism-based. Particulars: marmoset, 336 h.
Series [26] in a line: Tmax of aliskiren hemifumarate following 4 week oral dietary dosing of aliskiren hemifumarate at 500 mg.Kg-1 level in male mouse. Particulars: CB6F1-TGrasH2, mouse, in vivo. Type of series: ADME, organism-based.
The nature of series [27]: Plasma clearance (0-168h) of unlabeled aliskiren hemifumarate following single intravenous administration of aliskiren hemifumarate at 1 mg.Kg-1 level in marmoset. Type of series: ADME, organism-based, Callithrix jacchus. Particulars: in vivo.
The nature of series [28]: AUC (0-24h)/dose of aliskiren hemifumarate following 4 week oral dietary dosing of aliskiren hemifumarate at 2000 mg.Kg-1 level in male mouse. As to conditions: in vivo. Type of series: ADME, organism-based, CB6F1-TGrasH2, Plasma.
Series [29] can be described thus: AUC of aliskiren hemifumarate following single dosing of SPP100B oral solution at 160 mg level studied on day 1 in men. Type of series: ADME, organism-based. Particulars: male, human, plasma.
The nature of series [30]: Cmax of aliskiren hemifumarate following 4 week oral dietary dosing of aliskiren hemifumarate at 2000 mg.Kg-1 level in female mouse. Type of series: ADME, organism-based. As to conditions: CB6F1-TGrasH2, mouse, in vivo.
Series [31] can be described thus: Effect of 2 week oral dosing of aliskiren hemifumarate at 100 mg.Kg-1 level on blood urea nitrogen level in male Callithrix jacchus. Type of series: toxicity, organism-based, Plasma. Particulars: marmoset, 336 h.
Series [32] can be described thus: Effect of 2 week oral dosing of aliskiren hemifumarate at 100 mg.Kg-1 level on plasma alkaline phosphatase level in female Callithrix jacchus. Type of series: toxicity, organism-based. Particulars: marmoset, 336 h.
The nature of series [33]: Tmax of aliskiren hemifumarate following single dosing of SPP100B oral solution at 80 mg level studied on day 1 in men. Type of series: ADME, organism-based. Particulars: male, human, plasma.
The nature of series [34]: AUCspec of aliskiren hemifumarate following 2 week oral dosing of aliskiren hemifumarate at 100 mg.Kg-1 level studied on day 1 in male Callithrix jacchus. Particulars: marmoset, in vivo, 336 h. Type of series: ADME, organism-based, Plasma.
The nature of series [35]: Cmaxspec of aliskiren hemifumarate following 2 week oral dosing of aliskiren hemifumarate at 10 mg.Kg-1 level studied on day 1 in female Callithrix jacchus. Type of series: ADME, organism-based, Plasma. Particulars: marmoset, in vivo, 336 h.
Series [36] can be described thus: Tmax of aliskiren hemifumarate following 4 week oral dietary dosing of aliskiren hemifumarate at 500 mg.Kg-1 level in female mouse. Particulars: CB6F1-TGrasH2, mouse, in vivo. Type of series: ADME, organism-based.
Series [37] is described as follows: Effect of 2 week oral dosing of aliskiren hemifumarate at 50 mg.Kg-1 level on blood urea nitrogen level in female Callithrix jacchus. Type of series: toxicity, organism-based, Plasma. Particulars: marmoset, 336 h.
Series [38] is described as follows: Bioavailability (0-168h) of unlabeled aliskiren hemifumarate following single oral administration of aliskiren hemifumarate at 3 mg.Kg-1 level in marmoset. Type of series: ADME, organism-based, Callithrix jacchus. As to conditions: plasma.
The nature of series [39]: Cmax of aliskiren hemifumarate following 8 day once-daily dosing of SPP100B oral solution at 40 mg level studied on day 8 in men. Type of series: ADME, organism-based. Particulars: male, human, plasma.
Series [40] in a line: AUC of unlabeled aliskiren hemifumarate following single intravenous dose of aliskiren hemifumarate at 10 mg.Kg-1 level in mouse. Type of series: ADME, organism-based. Particulars: TgRasH2, mouse, plasma.
A short description of series [41]: Tmax of aliskiren hemifumarate following single dosing of SPP100B oral solution at 160 mg level studied on day 1 in men. Type of series: ADME, organism-based. Particulars: male, human, plasma.

Chain of CYP2C9 (P11712 whole entry): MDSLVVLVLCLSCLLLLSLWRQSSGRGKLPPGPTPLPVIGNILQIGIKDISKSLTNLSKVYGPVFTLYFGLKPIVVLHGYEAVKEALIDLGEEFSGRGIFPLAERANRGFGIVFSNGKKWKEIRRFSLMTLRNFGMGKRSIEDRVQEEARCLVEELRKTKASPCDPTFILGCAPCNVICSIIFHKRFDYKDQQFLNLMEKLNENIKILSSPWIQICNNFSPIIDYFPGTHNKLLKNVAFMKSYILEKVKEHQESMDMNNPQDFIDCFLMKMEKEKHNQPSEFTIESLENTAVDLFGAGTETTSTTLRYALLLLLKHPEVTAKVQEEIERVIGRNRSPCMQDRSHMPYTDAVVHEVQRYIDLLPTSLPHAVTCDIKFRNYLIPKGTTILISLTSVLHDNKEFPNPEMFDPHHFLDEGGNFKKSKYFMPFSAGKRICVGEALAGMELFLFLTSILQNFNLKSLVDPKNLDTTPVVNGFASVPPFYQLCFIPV
Chain of CYP2E1 (P05181 whole entry): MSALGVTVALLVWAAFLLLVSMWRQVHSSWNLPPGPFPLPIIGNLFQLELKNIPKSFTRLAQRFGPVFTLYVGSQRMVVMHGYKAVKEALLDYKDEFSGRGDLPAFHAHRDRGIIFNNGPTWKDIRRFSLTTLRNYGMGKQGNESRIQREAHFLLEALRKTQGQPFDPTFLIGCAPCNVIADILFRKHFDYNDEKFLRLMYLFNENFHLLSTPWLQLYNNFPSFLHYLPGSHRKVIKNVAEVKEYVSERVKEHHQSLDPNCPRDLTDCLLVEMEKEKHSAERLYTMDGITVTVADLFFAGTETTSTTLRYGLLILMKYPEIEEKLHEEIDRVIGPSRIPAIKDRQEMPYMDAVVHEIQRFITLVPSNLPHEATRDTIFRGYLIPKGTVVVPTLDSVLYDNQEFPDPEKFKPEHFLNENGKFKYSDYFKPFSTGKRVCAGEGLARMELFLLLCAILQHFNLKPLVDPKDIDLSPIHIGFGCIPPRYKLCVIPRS

With `COCCCOc1cc(C[C@@H](C[C@H](N)[C@@H](O)C[C@H](C(=O)NCC(C)(C)C(N)=O)C(C)C)C(C)C)ccc1OC`, in [1], the CL/F was 5350 mL/min. Moreover, the Compound recovery in series [2] is on record as over 40%; in series [3] it was 60.4%. The values for the inhibition at 200 µM in [4] and in series [5] were 23% and -12.8%, respectively.

For `COCCCOc1cc(C[C@@H](C[C@H](N)[C@@H](O)C[C@H](C(=O)NCC([14CH3])([14CH3])C(N)=O)C(C)C)C(C)C)ccc1OC.O=C(O)/C=C/C(=O)O`, the Radiolabel recovery in [6] turned out to be 96.2%; in [7], 28.2%; in series [8], 91.1%; in series [9] it was 4.2%; in series [11], 73%; in [12], 2.22%. For the same compound, the Radiolabel recovery in [14] is 94.4%; in [15] it was 0.17%; in series [16], “OUTCOME = Detected”; in series [17], 58.6%; in series [19], “OUTCOME = Observed, VALUE = Elimination of aliskiren occurred mainly via the biliary or faecal route”; in series [20], “OUTCOME = Detected”. For the same compound, the AUC in series [10] was found to be 52.92 µM·h; in series [13] it was 5.38 µM·h; in series [13] (iv, 10 mg/kg), 8.08 µM·h. Besides, the “Tmax(1)” value in [18] is given as 2 h.

`COCCCOc1cc(C[C@@H](C[C@H](N)[C@@H](O)C[C@H](C(=O)NCC(C)(C)C(N)=O)C(C)C)C(C)C)ccc1OC.COCCCOc1cc(C[C@@H](C[C@H](N)[C@@H](O)C[C@H](C(=O)NCC(C)(C)C(N)=O)C(C)C)C(C)C)ccc1OC.O=C(O)/C=C/C(=O)O` [ALISKIREN FUMARATE] gave an AUC(0-t) at 24 h in series [21] of 21300 ng·h/mL. The time of peak concentration (Tmax) in [22] turned out to be 3.2 h; in series [23], 1.6 h; in series [26], 3 h; in [33], 2.8 h; in series [36], 0 h; in series [41], 2.7 h. Moreover, in series [24], the “Cmin(1)” value was found to be 3.47 nM. For the same compound, the CREAT_CHANGE_BY in [25] came to 130%. For the same compound, in [27], the Plasma clearance came to 0.036 L·h/kg. Besides, the AUC normalised in series [28] was 3.86 ((ng/mL).hours)/(mg/kg/day); in [34] it was 0.764 ((ug.h.ml-1)/(mg/kg). Also, the area under the curve (AUC) in [29] was 215 ng·h/mL; in [40], 9.03 µM·h. The Cmax in [30] was 1230 ng/mL; in series [39], 6.2 ng/mL. Besides, the BUN_CHANGE_BY in [31] came out at 166%; in series [37] it was 274%. In addition, in series [32], the ALP_CHANGE_TO result is on record as “OUTCOME = 2-fold increase over initial values. No animals died during the study”. The Cmax normalised in series [35] was 0.396 (ug/ml)/(mg/kg). The same compound displayed a bioavailability in series [38] of 3%.

Usually CL/F stands for clearance divided by bioavailability, as obtained after extravascular dosing. Usually inhibition stands for the relative decrease from the control value, in per cent. The term AUC denotes the area under the concentration-time curve, a measure of exposure. As usually defined, the AUC(0-t) is exposure summed from dosing to a finite time, without extrapolation to infinity. A lower AUC(0-t) goes with less exposure. What is called Tmax is the time from dosing to the highest level. A word on the Cmax: it is the maximum level reached in the sampled fluid or tissue. In general, bioavailability refers to the share of a dose that reaches the circulation, judged against a reference dose that is usually intravenous. Low readings indicate little systemic uptake, high ones much systemic uptake.
